Where “and” joins values, the source holds several entries; their conditions need not be identical. Identical values can stand only once.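 Growth conditions: 96-well plates. Treatment: test compound, 48 hours, 5 concentrations. Analysis: linear interpolation between bracketing concentrations; unreached endpoints set to highest concentration. GI50 is the concentration that inhibits growth by half. At the TGI there is no net growth.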

Assay in all cases: NCI anticancer screen, dose series, 48 h
Assay [1] has as its system SNB-75 CNS.
Assay [2] concerns COLO 205 colon.
For assay [3], the system named is NCI-H226 lung.
Assay [4] has as its system OVCAR-5 ovarian.
Assay [5] concerns SK-MEL-28 melanoma.
The subject of assay [6] is MOLT-4 leukemia.
Assay [7] deals with OVCAR-8 ovarian.
The subject of assay [8] is HT29 colon.
Assay [9] concerns SK-MEL-5 melanoma.

For `O=C(CO[N+](=O)[O-])OCC(=O)c1ccccc1`, the TGI in assay [1], in assay [2], in [3], in [4], in assay [5] and in [6] was above 100 µM in each case. Also, the TGI in assay [7] and in assay [8] was above 100 µM throughout.

For `CN1C/C(=C\c2ccco2)c2nc(N)nc(-c3ccco3)c2C1`, the TGI in [1], in assay [2], in [3], in [4], in assay [5] and in assay [9] was above 100 µM in each case. Also, the TGI in assay [6], in assay [7] and in assay [8] was above 100 µM in each case.

With `CC1=C2[C@@H](c3ccccc3)C3C=CC2(C=C3C(F)(F)F)N(C(=O)NC2CCCCC2)C1=O` (stereo not given in full), the TGI in assay [1], in [2], in assay [4], in assay [5], in assay [9] and in [6] was above 100 µM each time. The TGI in [7] and in [8] was above 100 µM each time.

Turning to `NC(=O)NC(=O)C1CCC(=O)N1S(=O)(=O)c1ccc(Cl)cc1` (stereo not given), the TGI in [1], in [2], in [3], in assay [5], in assay [9] and in [6] was above 100 µM throughout. The TGI in assay [7] and in [8] was above 100 µM in each case.

On to `O=c1cccccc1[O-].O=c1cccccc1[O-].O=c1cccccc1[O-].[Dy+3]`, for which the TGI was 52.1 µM in assay [1]; above 100 µM in assay [3]; above 100 µM in assay [4]; above 100 µM in assay [5]; 72.3 µM in [9]; 46.2 µM in [6]. Also, the TGI in assay [7] was 97.6 µM; in assay [8], above 100 µM.

As to `CN(C)c1ccc(/C=C2\Cc3ccccc3C2=O)cc1Br`, the TGI is above 100 µM in assay [1]; above 100 µM in assay [2]; above 100 µM in assay [4]; above 100 µM in assay [5]; 76.6 µM in [9]; 93.5 µM in assay [6]. Also, the TGI in [7] and in assay [8] was above 100 µM throughout.

For the compound `Cc1c2cc[n+](C)cc2c(C)c2c1[nH]c1ccc(Oc3ccccc3)cc12`, the GI50 in assay [1] was 0.549 µM; in assay [3] it was 0.797 µM. Also, the TGI in [1] was 4.36 µM and 5.27 µM; in [2], 5.25 µM; in assay [3], 28 µM and 8.75 µM; in assay [4] it was > 42 µM and 29.9 µM; in assay [5] it was > 27.3 µM and 21.3 µM; in assay [6], > 43.7 µM and 12.7 µM. Further, the TGI is above 100 µM in assay [7]; 21.2 µM and 29 µM in assay [8].

Regarding `COc1cccc(OC)c1/C=N\N1C(=O)c2ccccc2C1=O`, the TGI was 98.1 µM in assay [1]; above 100 µM in assay [3]; above 100 µM in assay [4]; above 100 µM in assay [5]; above 100 µM in [9]; above 100 µM in assay [6]. Also, the TGI in [7] was 89.3 µM; in [8], above 100 µM.

Turning to `O=[N+]([O-])C1(CO)COC(CCc2ccccc2)OC1` (stereo not given), the TGI in assay [1], in assay [4], in assay [5], in assay [9], in [6] and in assay [7] was above 100 µM in each case. Also, the TGI in assay [8] is above 100 µM.

As to `CCOC(=O)C1C(=O)C(=O)N2CCc3c([nH]c4ccccc34)C12` (stereo not given), the TGI in assay [2], in assay [4], in [5], in assay [9], in assay [6] and in assay [7] was above 100 µM each time. The compound further had a TGI in [8] above 100 µM.

`O=C1COc2cc3c(cc2N1)SCC(=O)N3`: the TGI in [1], in [2], in [3], in assay [5], in [9] and in assay [6] was above 100 µM throughout. The TGI in [7] and in assay [8] was above 100 µM in each case.

As for `Cc1cc2c(=O)cc(-c3ccncc3)oc2c(C(=O)O)c1C`, the TGI in [1], in assay [2], in assay [3], in [4], in [5] and in [6] was above 100 µM in each case. The TGI in [7] and in assay [8] was above 100 µM each time.

With `CC1=CC(=O)N2[C@H](OC[C@@H]2C(C)C)O1`, the TGI in assay [1], in [2], in assay [3], in assay [5], in [9] and in assay [6] was above 100 µM each time. The TGI in [7] and in assay [8] was above 100 µM throughout.

In the case of `CCCCCCCCCCCCCCCC(=O)NCC(OCC)OCC`, the TGI in [1], in [2], in assay [3], in [4], in [5] and in assay [9] was above 100 µM in each case. The TGI in assay [7] and in assay [8] was above 100 µM each time.

In the case of `Cn1nc(-c2ccccc2)c(C(=O)/C=C/c2ccccc2)c(N2CCCC2)c1=O`, the TGI in [2] amounted to 30 µM; in assay [5], 32.8 µM; in assay [9] it was 35.7 µM; in [6], 22.3 µM; in assay [7], 76.5 µM; in assay [8] it was 26.9 µM.

With `CCNC(=O)O/N=C1/C=C2CC[C@@H]3C(CC[C@@]4(C)C3CC[C@@H]4OC(=O)NCC)[C@@]2(C)CC1` (stereo not given in full), the TGI in assay [1] was 5.94 µM; in assay [2] it was 7.87 µM; in assay [4], 20 µM; in assay [5], 14.6 µM; in [9], above 100 µM; in assay [6], 5.44 µM. Moreover, the TGI in [7] came to 16.3 µM; in [8], 10.3 µM.

Regarding `CC1CC2C(=O)N(c3ccccc3)C(=O)C2c2[nH]c3ccccc3c21` (stereo not given), the TGI in assay [1] was 55.1 µM; in assay [2], above 100 µM; in assay [5], above 100 µM; in assay [9] it was above 100 µM; in assay [6], above 100 µM; in assay [7], above 100 µM. Also, the TGI in assay [8] is above 100 µM.

For the compound `Cc1[nH]n(C(=O)c2ccc(Cl)cc2)c(=O)c1/C=C1\C(O)=CC(=O)c2ccccc21`, the TGI in assay [2], in assay [4], in [5], in assay [9], in assay [6] and in assay [7] was above 100 µM throughout. Besides, in assay [8], the TGI was above 100 µM.

For `Nc1nc(N)c(-c2ccccc2)c(C(=O)Nc2nccs2)n1`, the TGI in [2], in assay [3], in assay [4], in assay [5], in [9] and in [6] was above 100 µM throughout. Further, the TGI in assay [7] and in assay [8] was above 100 µM in each case.

With `CCCCc1c2c(nc3c1CC/C(=C\c1ccccc1)C3=O)CCCC2`, the TGI was 23 µM in [1]; 23.1 µM in assay [2]; 9.52 µM in [5]; 11.7 µM in assay [6]; 4.79 µM in assay [7]; 4.75 µM in assay [8].

Regarding `CC(=O)OCC1OC(OC(C)=O)C(NC#N)C(OC(C)=O)C1OC(C)=O` (stereo not given), the TGI in [1], in [2], in assay [4], in assay [5], in assay [9] and in assay [6] was above 100 µM in each case. Moreover, the TGI in assay [7] and in assay [8] was above 100 µM throughout.

For the compound `O=C1NC2(CCCCC2)C2=C1CCCCC2`, the TGI in [1], in assay [2], in assay [4], in assay [5], in assay [9] and in assay [6] was above 100 µM each time. Also, the TGI in assay [7] and in [8] was above 100 µM each time.

In the case of `COC(=O)C1=C(C)N(NC(=O)Nc2ccccc2)C2(N)N(NC(=O)Nc3ccccc3)C(C)=C(C(=O)OC)C12C(=O)OC` (stereo not given), the TGI in assay [1] is above 100 µM; in assay [2] it was above 100 µM; in assay [3], above 100 µM; in assay [4], above 100 µM; in assay [5] it was above 100 µM; in assay [6] it was 71.3 µM. In addition, the TGI in assay [7] and in assay [8] was above 100 µM throughout.

As for `CN1OC(CO)CC12C1CC3CC(C1)CC2C3` (stereo not given), the TGI in [1], in assay [2], in assay [4], in assay [5], in assay [9] and in assay [6] was above 100 µM each time. Moreover, the TGI in assay [7] and in assay [8] was above 100 µM throughout.

As for `COC(=O)CCSC(=O)Nc1ccccc1Cl`, the TGI in assay [1], in assay [2], in [3], in assay [4], in [5] and in [6] was above 100 µM in each case. For the same compound, the TGI in assay [7] and in [8] was above 100 µM in each case.

For the origin of these results see PubChem BioAssay (NCI).
